Reference: article PMC11355195 (Life, 2024)

Assays:
COX-1 = molecular target: T1, COX-1 (Ovis aries, UniProt P05979); assay: COX-1-catalyzed prostaglandin production inhibition; type: biochemical, ram; conditions: mean ± standard deviation, three replicas; read-out: COX-1 inhibition IC50 (converted)
T1 construct: The COX-1 enzyme was produced from ram seminal vesicles; purchased Cayman Chemical Company, Ann Arbor, MI, USA; host or cells: ram seminal vesicles (tissue)
T1 sequence (P05979 25-600): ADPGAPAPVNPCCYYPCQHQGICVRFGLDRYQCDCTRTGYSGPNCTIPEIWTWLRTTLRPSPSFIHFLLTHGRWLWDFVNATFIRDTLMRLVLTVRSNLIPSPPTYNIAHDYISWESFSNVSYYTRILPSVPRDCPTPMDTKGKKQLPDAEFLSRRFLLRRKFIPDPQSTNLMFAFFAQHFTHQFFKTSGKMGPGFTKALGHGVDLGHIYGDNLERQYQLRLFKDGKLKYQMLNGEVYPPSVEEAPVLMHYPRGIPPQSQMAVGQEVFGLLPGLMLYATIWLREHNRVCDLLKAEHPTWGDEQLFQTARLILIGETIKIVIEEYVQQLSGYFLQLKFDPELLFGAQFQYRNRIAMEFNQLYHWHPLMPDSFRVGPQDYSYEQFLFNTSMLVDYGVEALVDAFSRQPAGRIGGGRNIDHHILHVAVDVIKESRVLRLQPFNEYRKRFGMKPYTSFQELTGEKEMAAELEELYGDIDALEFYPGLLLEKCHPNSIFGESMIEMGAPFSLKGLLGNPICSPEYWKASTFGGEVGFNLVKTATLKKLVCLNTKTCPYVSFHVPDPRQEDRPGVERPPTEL
Method: (§1) The COX inhibitory effects of the substances were examined using a COX-1/COX-2-catalyzed prostaglandin production test, using a modified approach by Futaki et al.. The chemicals were dissolved in 4% DMSO to a final concentration of 100 µg/mL.
(§2) In this test, one unit of COX-1 or COX-2 enzyme was suspended in a 0.1 M Tris-HCl buffer (pH 7.5) containing hematin ([…]) and phenol (2 mM) as cofactors. The COX-1 enzyme was produced from ram seminal vesicles, while COX-2 was taken from sheep placenta with a purity of 70% (both from Cayman Chemical Company, Ann Arbor, MI, USA). The reaction mixture was preincubated with either the solvent vehicle (4% DMSO) or the test solution for 2 min at 37 °C. […] Arachidonic acid, tagged with radioactive carbon ([1–14C]), serves as a substrate for the COX enzymes. The mixture was then incubated for an additional 2 min at 37 °C. […] The organic solvent phase was removed, and the PGE2 level in the remaining aqueous phase was quantified using a radioimmunoassay with a liquid scintillation counter, which measures the radioactivity (disintegrations per minute, DPM) of the [1–14C]-labeled PGE2. The percentage inhibition of COX-catalyzed prostaglandin production by the test compounds was estimated by comparing the radioactivity of the samples with the solvent vehicle controls. […]

DPPH scavenging capacity = conditions: 0.1 mM DPPH
Method: The method utilized to test the compound’s efficacy in scavenging DPPH radicals was based on protocols detailed in references, with minor changes. The test was completed in duplicate for each concentration. A solution of 0.1 mM DPPH (2,2-diphenyl-1-picrylhydrazyl) was produced, and the compounds were evaluated at different concentrations ranging from 1 to 500 µg/mL. Ascorbic acid served as the positive control with concentrations ranging from 0.01 to 300 µg/mL [35].

COX-2 = molecular target: T2, COX-2 (Ovis aries, UniProt P79208); assay: COX-2-catalyzed prostaglandin production inhibition; type: biochemical, sheep; conditions: mean ± standard deviation, three replicas
T2 construct: purchased Cayman Chemical Company, Ann Arbor, MI, USA; host or cells: sheep placenta (tissue)
T2 sequence (P79208 17-603): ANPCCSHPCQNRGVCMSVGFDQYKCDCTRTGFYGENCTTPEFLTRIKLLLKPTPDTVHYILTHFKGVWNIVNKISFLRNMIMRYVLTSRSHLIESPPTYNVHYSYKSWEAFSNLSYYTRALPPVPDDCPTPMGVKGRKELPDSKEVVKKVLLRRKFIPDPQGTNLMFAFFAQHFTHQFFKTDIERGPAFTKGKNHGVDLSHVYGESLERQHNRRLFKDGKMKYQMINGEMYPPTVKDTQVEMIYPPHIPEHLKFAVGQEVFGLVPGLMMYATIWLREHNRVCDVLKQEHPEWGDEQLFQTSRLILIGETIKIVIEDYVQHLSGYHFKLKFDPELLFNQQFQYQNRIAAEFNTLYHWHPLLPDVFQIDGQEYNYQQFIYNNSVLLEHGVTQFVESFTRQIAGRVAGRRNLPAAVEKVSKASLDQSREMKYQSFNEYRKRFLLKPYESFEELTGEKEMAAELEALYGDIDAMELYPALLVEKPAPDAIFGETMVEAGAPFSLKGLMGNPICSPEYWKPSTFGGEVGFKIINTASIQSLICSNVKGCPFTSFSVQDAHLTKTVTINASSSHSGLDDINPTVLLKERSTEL
Method: as §1, §2

ABTS scavenging activity = assay: ABTS scavenging activity
Text: With a few minor adjustments, the procedure published by Re et al., was used to evaluate the test samples’ capacity to scavenge radicals against the ABTS (2,2′-azinobis-3-ethylbenzothiazoline-6-sulphonate) radical cation.

**Q.** For `Cc1ccc(C(C)C)c(O)c1` [Thymol, 2-isopropyl-5-methylphenol], which IC50 (COX-1) is on record?
**A.** The IC50 was 198 µM.

**Q.** And the “DPPH Scavenging Capacity IC50” value (DPPH scavenging capacity)?
**A.** Its value is 161.02 ± 6.89 µg/mL.

**Q.** What about the IC50 (COX-2) of the same compound?
**A.** Its IC50 is 177 µM.

**Q.** And the “ABTS Scavenging Activity IC50” value (ABTS scavenging activity)?
**A.** The value was 125.31 ± 6.25 µg/mL.
